Results reported in patent US20260209234A1, “SUBSTITUTED DIHYDROPYRROLO[3,4-D]PYRIMIDINE COMPOUNDS AND THEIR USE IN TREATING MEDICAL CONDITIONS” (Karuna Therapeutics, Inc., priority 2022, published 2026).

What was measured:
[1] = tested on: Sprague Dawley rats pre-treated with amphetamine; assay: Amphetamine-evoked hyperlocomotion in rats; type: in vivo, rat; conditions: male Sprague Dawley rats; 0.5 mg/kg amphetamine s.c.; open field, distance traveled
Procedure: Animals: Adult male, Sprague Dawley rats (Envigo, Indianapolis, IN, USA) were housed in a colony maintained at 23° C. with 12 hour light/dark cycles (lights on at 0600 hour). All animals weighed 290-330 g at the beginning of the study and were equally divided into 5 groups (n=8 per group) and received one of the treatment conditions listed below. Animal protocols were approved by an Animal Care and Use Committee.
Behavioral Procedures: Studies were conducted in MedAssociates open field chambers (27.3 cm×27.3 cm×20.3 cm, MedAssociates, St. Albans, VT) in which movement was automatically tracked and recorded by 16 beam arrays. Administration pretreatment of the test article was determined to coincide with Tmax at the time of the amphetamine-evoked session with optimal route of administration. All groups were subcutaneously treated with 0.5 mg/kg amphetamine (AMP). […] Locomotor data (distance traveled) was recorded as 5-minute bins throughout the 90-minute session. […]
Statistical Analysis: Spontaneous locomotion (prior to AMP administration) was calculated as the total distance traveled during the first 30 minutes of the experimental session. AMP-evoked responses were calculated as the total distance traveled during the last 60 minutes of the experimental session which commenced immediately after AMP administration. Locomotor data were analyzed by a one-way ANOVA. […]

hM4 receptors = target: T1, hM4 receptors (Homo sapiens, UniProt P08173); assay: Human M4 PAM pERK assay; type: cell-based; conditions: CHO cells expressing hM4; EC20 of acetylcholine (10 nM final); TR-FRET
T1 construct: expressed in transfected cells; host or cells: CHO cells
T1 sequence (P08173 1-479): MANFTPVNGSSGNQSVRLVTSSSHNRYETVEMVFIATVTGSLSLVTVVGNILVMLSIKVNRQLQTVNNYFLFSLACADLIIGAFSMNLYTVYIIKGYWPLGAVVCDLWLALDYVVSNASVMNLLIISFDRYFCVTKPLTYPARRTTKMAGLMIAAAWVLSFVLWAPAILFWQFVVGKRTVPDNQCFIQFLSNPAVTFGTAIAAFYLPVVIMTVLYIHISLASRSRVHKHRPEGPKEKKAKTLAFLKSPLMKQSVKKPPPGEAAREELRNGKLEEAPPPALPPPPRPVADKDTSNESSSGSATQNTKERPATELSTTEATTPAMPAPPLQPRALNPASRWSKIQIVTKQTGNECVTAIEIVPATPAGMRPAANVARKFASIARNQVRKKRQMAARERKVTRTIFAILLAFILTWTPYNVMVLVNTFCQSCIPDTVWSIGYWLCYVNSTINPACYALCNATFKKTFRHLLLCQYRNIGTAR

| SMILES | Dose Amount of Compound at which rats displayed a reduction in amphetamine-evoked hyperlocomotion activity [1] [mg/kg] | EC50 (hM4 receptors) [nM] |
| --- | --- | --- |
| COc1nc(C)nc2c1C(C)N(C(=O)CC1CN(c3ccnc(C(F)(F)F)c3)C1)C2 (single isomer, unassigned) [Compound I-52, 1-(4-Methoxy-2,5-dimethyl-5,7-dihydro-6H-pyrrolo[3,4-d]pyrimidin-6-yl)-2-(1-(2-(trifluoromethyl)pyridin-4-yl)azetidin-3-yl)ethan-1-one] | 32 | 100 to 500 |
| COc1nc(C#N)nc2c1C(C)N(C(=O)CC1CN(c3ccnc(C(F)(F)F)c3)C1)C2 (single isomer, unassigned) [Compound I-6, 4-Methoxy-5-methyl-6-(2-(1-(2-(trifluoromethyl)pyridin-4-yl)azetidin-3-yl)acetyl)-6,7-dihydro-5H-pyrrolo[3,4-d]pyrimidine-2-carbonitrile] | >32 | ≤ 100 |
